In patent US8354422B2, “Pyrimidine inhibitors of kinase activity” (Abbott Laboratories Inc., priority 2009, dated 2013):
pIC50: −log10 of the molar value.

biological target: T1, C-terminal GST-tagged, recombinant, human IGF-1R, amino acids 954-1367 (Homo sapiens, UniProt P08069); assay: IGF-1R kinase activity, homogenous time-resolved fluorescence (HTRF) in vitro kinase assay; type: biochemical; settings: IGF-1R kinase HTRF assay, ATP 50 μM, biotinylated peptide substrate 0.5 μM, 60 minutes at room temperature
T1 construct: human IGF-1R, amino acids 954-1367 expressed by baculovirus in Sf21 cells; GST (C); purchased Cell Signaling Technology; host or cells: baculovirus in Sf21 cells
Method: IGF-1R kinase activity was assayed by a homogenous time-resolved fluorescence (HTRF) in vitro kinase assay (Mathis, G., HTRF(R) Technology. J Biomol Screen, 1999. 4(6): p. 309-314). Specifically, 10 μL C-terminal GST-tagged, recombinant, human IGF-1R, amino acids 954-1367 expressed by baculovirus in Sf21 cells (Cell Singaling Technology) was mixed with 10 μL inhibitor (various concentrations, 2% final DMSO) and 10 μL of ATP (50 μM final concentration) in reaction buffer (50 mM HEPES, pH […], 2 mM MnCl2, 0.1% BSA and 1 mM DTT, 40 μL final volume). The reaction was initiated by addition of 10 μL of biotinylated peptide substrate (Biotin-Ahx-[…], 0.5 μM final concentration) in a black 384-well plate (Packard). After 60 minutes incubation at room temperature, the reaction was quenched by addition of 60 μL stop/revelation buffer to give 30 mM EDTA, 1 μg/mL streptavidin-APC (Prozyme), 50 ng/mL anti-phosphotyrosine mAb PT66-K Europium Cryptate, 30 mM HEPES, pH 7.5, 120 mM KF, 0.005% Tween-20, 0.05% BSA). The quenched reaction was allowed to stand at room temperature for 1 hour and then read in a time-resolved fluorescence detector (Envision, Perkin Elmer) at 615 nm and 665 nm simultaneously. The ratio between the signal of 615 nm and 665 nm was used in the calculation of the IC50.

T1 sequence (P08069 954-1367): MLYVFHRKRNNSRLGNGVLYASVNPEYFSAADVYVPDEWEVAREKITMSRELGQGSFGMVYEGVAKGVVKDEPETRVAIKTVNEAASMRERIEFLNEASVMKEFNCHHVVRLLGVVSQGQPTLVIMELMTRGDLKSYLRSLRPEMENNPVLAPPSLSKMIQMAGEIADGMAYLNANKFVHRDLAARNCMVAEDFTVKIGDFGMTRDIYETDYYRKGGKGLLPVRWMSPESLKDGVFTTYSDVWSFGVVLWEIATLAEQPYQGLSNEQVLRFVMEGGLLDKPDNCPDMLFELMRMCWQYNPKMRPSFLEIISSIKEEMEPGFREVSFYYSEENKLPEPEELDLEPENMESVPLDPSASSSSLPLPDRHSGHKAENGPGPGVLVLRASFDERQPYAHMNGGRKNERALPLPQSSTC

Row | pIC50 | Compound
1 | < 6.00 | COc1ccc(C(F)(F)F)cc1Nc1nccc(-c2c(-c3ccc(OCc4ccccc4)c(OC)c3)nc3ccccn23)n1 [Example 40, 4-{2-[4-(benzyloxy)-3-methoxyphenyl]imidazo[1,2-a]pyridin-3-yl}-N-[2-methoxy-5-(trifluoromethyl)phenyl]pyrimidin-2-amine]
2 | 6.30 to 7.00 | COc1cc(-c2nc3ccccn3c2-c2ccnc(Nc3cccc(N4CCOCC4)c3)n2)ccc1OCc1ccccc1 [Example 25, 4-{2-[4-(benzyloxy)-3-methoxyphenyl]imidazo[1,2-a]pyridin-3-yl}-N-(3-morpholin-4-ylphenyl)pyrimidin-2-amine]
3 | 6.30 to 7.00 | COc1ccc(N2CCOCC2)cc1Nc1nccc(-c2c(-c3ccc(OCc4ccccc4)c(OC)c3)nc3ccccn23)n1 [Example 52, 4-{2-[4-(benzyloxy)-3-methoxyphenyl]imidazo[1,2-a]pyridin-3-yl}-N-(2-methoxy-5-morpholin-4-ylphenyl)pyrimidin-2-amine]
4 | 6.30 to 7.00 | COc1ccc(N2CCSCC2)cc1Nc1nccc(-c2c(-c3ccc(OCc4ccccc4)c(OC)c3)nc3ccccn23)n1 [Example 73, 4-{2-[4-(benzyloxy)-3-methoxyphenyl]imidazo[1,2-a]pyridin-3-yl}-N-(2-methoxy-5-thiomorpholin-4-ylphenyl)pyrimidin-2-amine]
5 | 7.00 to 7.60 | COc1cc(-c2nc3ccccn3c2-c2ccnc(Nc3cccc(CCN(C)CCO)c3)n2)ccc1OCc1ccccc1 [Example 38, 2-[(2-{3-[(4-{2-[4-(benzyloxy)-3-methoxyphenyl]imidazo[1,2-a]pyridin-3-yl}pyrimidin-2-yl)amino]phenyl}ethyl)(methyl)amino]ethanol]
6 | 7.00 to 7.60 | COc1cc(-c2nc3ccccn3c2-c2ccnc(Nc3ccc4c(c3)CNCC4)n2)ccc1OCc1ccccc1 [Example 62, N-(4-{2-[4-(benzyloxy)-3-methoxyphenyl]imidazo[1,2-a]pyridin-3-yl}pyrimidin-2-yl)-1,2,3,4-tetrahydroisoquinolin-7-amine]
7 | > 7.60 | COc1cc(-c2nc3ccccn3c2-c2ccnc(Nc3ccc4c(c3)CCNC4)n2)ccc1OCc1ccccc1 [Example 61, N-(4-{2-[4-(benzyloxy)-3-methoxyphenyl]imidazo[1,2-a]pyridin-3-yl}pyrimidin-2-yl)-1,2,3,4-tetrahydroisoquinolin-6-amine]
8 | 6.30 to 7.00 | COc1cc(-c2nc3ccccn3c2-c2ccnc(Nc3ccc(N4CCS(=O)(=O)CC4)cc3)n2)ccc1OCc1ccccc1 [Example 32, 4-{2-[4-(benzyloxy)-3-methoxyphenyl]imidazo[1,2-a]pyridin-3-yl}-N-[4-(1,1-dioxidothiomorpholin-4-yl)phenyl]pyrimidin-2-amine]
9 | 7.00 to 7.60 | COc1cc(-c2nc3ccccn3c2-c2ccnc(Nc3ccc(NC(=O)CN(C)C)cc3)n2)ccc1OCc1ccccc1 [Example 65, N^1-{4-[(4-{2-[4-(benzyloxy)-3-methoxyphenyl]imidazo[1,2-a]pyridin-3-yl}pyrimidin-2-yl)amino]phenyl}-N^2,N^2-dimethylglycinamide]
10 | > 7.60 | COc1cc(-c2nc3ccccn3c2-c2ccnc(Nc3cccc(OCCN4CCCC4)c3)n2)ccc1OCc1ccccc1 [Example 30, 4-{2-[4-(benzyloxy)-3-methoxyphenyl]imidazo[1,2-a]pyridin-3-yl}-N-[3-(2-pyrrolidin-1-ylethoxy)phenyl]pyrimidin-2-amine]
11 | 6.30 to 7.00 | COc1cc(N(C)CCO)ccc1Nc1nccc(-c2c(-c3ccc(OCc4ccccc4)c(OC)c3)nc3ccccn23)n1 [Example 48, 2-[{4-[(4-{2-[4-(benzyloxy)-3-methoxyphenyl]imidazo[1,2-a]pyridin-3-yl}pyrimidin-2-yl)amino]-3-methoxyphenyl}(methyl)amino]ethanol]
12 | 7.00 to 7.60 | COc1ccc(CCN(C)C)cc1Nc1nccc(-c2c(-c3ccc(OCc4ccccc4)c(OC)c3)nc3ccccn23)n1 [Example 59, 4-{2-[4-(benzyloxy)-3-methoxyphenyl]imidazo[1,2-a]pyridin-3-yl}-N-{5-[2-(dimethylamino)ethyl]-2-methoxyphenyl}pyrimidin-2-amine]

The remaining lines, values behind:

Row | Compound | pIC50
13 | CN(C)CCc1cccc(Nc2nccc(-c3c(-c4ccc(OCc5ccccc5)cc4)nn4ncccc34)n2)c1 [Example 76, 4-{2-[4-(benzyloxy)phenyl]pyrazolo[1,5-b]pyridazin-3-yl}-N-{3-[2-(dimethylamino)ethyl]phenyl}pyrimidin-2-amine] | > 7.60
14 | CN(C)S(=O)(=O)c1cccc(Nc2nccc(-c3c(-c4ccc(OCc5ccccc5)cc4)nc4ccccn34)n2)c1 [Example 5, 3-[(4-{2-[4-(benzyloxy)phenyl]imidazo[1,2-a]pyridin-3-yl}pyrimidin-2-yl)amino]-N,N-dimethylbenzenesulfonamide] | < 6.00
15 | CS(=O)(=O)c1cccc(Nc2nccc(-c3c(-c4ccc(OCc5ccccc5)cc4)nc4ccccn34)n2)c1 [Example 4, 4-{2-[4-(benzyloxy)phenyl]imidazo[1,2-a]pyridin-3-yl}-N-[3-(methylsulfonyl)phenyl]pyrimidin-2-amine] | < 6.00
16 | c1ccc(COc2ccc(-c3nc4sccn4c3-c3ccnc(Nc4ccccc4)n3)cc2)cc1 [Example 78, 4-{6-[4-(benzyloxy)phenyl]imidazo[2,1-b][1,3]thiazol-5-yl}-N-phenylpyrimidin-2-amine] | < 6.00
17 | OCCn1cc(Nc2nccc(-c3c(-c4ccc(OCc5ccccc5)cc4)nc4ccccn34)n2)cn1 [Example 27, 2-{4-[(4-{2-[4-(benzyloxy)phenyl]imidazo[1,2-a]pyridin-3-yl}pyrimidin-2-yl)amino]-1H-pyrazol-1-yl}ethanol] | 6.30 to 7.00
18 | c1ccc(COc2ccc(-c3nc4ccccn4c3-c3ccnc(Nc4cc(C5CC5)n[nH]4)n3)cc2)cc1 [Example 15, 4-{2-[4-(benzyloxy)phenyl]imidazo[1,2-a]pyridin-3-yl}-N-(3-cyclopropyl-1H-pyrazol-5-yl)pyrimidin-2-amine] | < 6.00
19 | COc1ccc(COc2ccc(-c3nc4ccccn4c3-c3ccnc(Nc4cccc(CCN(C)C)c4)n3)cc2)cc1 [Example 17, N-{3-[2-(dimethylamino)ethyl]phenyl}-4-(2-{4-[(4-methoxybenzyl)oxy]phenyl}imidazo[1,2-a]pyridin-3-yl)pyrimidin-2-amine] | 6.30 to 7.00
20 | CN(C)CC(=O)Nc1cccc(Nc2nccc(-c3c(-c4ccc(OCc5ccccc5)cc4)nc4ccccn34)n2)c1 [Example 67, N^1-{3-[(4-{2-[4-(benzyloxy)phenyl]imidazo[1,2-a]pyridin-3-yl}pyrimidin-2-yl)amino]phenyl}-N^2,N^2-dimethylglycinamide] | 6.30 to 7.00
21 | COc1cc(-c2nc3ccccn3c2-c2ccnc(Nc3cnn(CCN(C)C)c3)n2)ccc1OCc1ccccc1 [Example 43, 4-{2-[4-(benzyloxy)-3-methoxyphenyl]imidazo[1,2-a]pyridin-3-yl}-N-{1-[2-(dimethylamino)ethyl]-1H-pyrazol-4-yl}pyrimidin-2-amine] | 6.30 to 7.00
22 | CC(Oc1ccc(-c2nc3ccccn3c2-c2ccnc(Nc3cccc(CCN(C)C)c3)n2)cc1)c1ccccc1 (stereo not shown) [Example 21, N-{3-[2-(dimethylamino)ethyl]phenyl}-4-{2-[4-(1-phenylethoxy)phenyl]imidazo[1,2-a]pyridin-3-yl}pyrimidin-2-amine] | 6.30 to 7.00
